Results on eight compounds are retold here after patent US5166162A, “Pyridylsulfonylurea and pyridylsulfonylthiourea compounds” (Adir et Compagnie, priority 1990, dated 1992).

The nature of data set [1]: Determination of partition coefficients between n-octanol and water. In kind it is physicochemical. The note with it: pH=7.4, logarithm to base 10. The method, then: The coefficients of partition between n-octanol and water were determined at pH=7.4 by conventional techniques and are expressed as logarithms to base 10 (Log P).
A short description of data set [2]: Determination of pKa (proton acidity constant of SO2-NH-CO-). Type of data set: physicochemical. From the text:
The pKa values represent the proton acidity constants of SO2 --NH--CO--.

Data set [3] concerns Cl^- passage in the kidneys. Briefly: Inhibition of Cl- passage in the kidneys in vivo. From the text:
The 50% inhibitory concentration for Cl^- passage in the kidneys in vivo is decreased, in the case of the compound of Example 8 by about 50% relative to Torasemide and in the case of the compound of Example 18 by 75%.

Data set [4] deals with T1, Na^+ /K^+ /2Cl^- cotransport (Rattus norvegicus, UniProt E9PTX9).
T1 construct: erythrocyte membrane in normotensive rats; from tissue; host or cells: rat erythrocytes
T1 sequence (E9PTX9 1-1203): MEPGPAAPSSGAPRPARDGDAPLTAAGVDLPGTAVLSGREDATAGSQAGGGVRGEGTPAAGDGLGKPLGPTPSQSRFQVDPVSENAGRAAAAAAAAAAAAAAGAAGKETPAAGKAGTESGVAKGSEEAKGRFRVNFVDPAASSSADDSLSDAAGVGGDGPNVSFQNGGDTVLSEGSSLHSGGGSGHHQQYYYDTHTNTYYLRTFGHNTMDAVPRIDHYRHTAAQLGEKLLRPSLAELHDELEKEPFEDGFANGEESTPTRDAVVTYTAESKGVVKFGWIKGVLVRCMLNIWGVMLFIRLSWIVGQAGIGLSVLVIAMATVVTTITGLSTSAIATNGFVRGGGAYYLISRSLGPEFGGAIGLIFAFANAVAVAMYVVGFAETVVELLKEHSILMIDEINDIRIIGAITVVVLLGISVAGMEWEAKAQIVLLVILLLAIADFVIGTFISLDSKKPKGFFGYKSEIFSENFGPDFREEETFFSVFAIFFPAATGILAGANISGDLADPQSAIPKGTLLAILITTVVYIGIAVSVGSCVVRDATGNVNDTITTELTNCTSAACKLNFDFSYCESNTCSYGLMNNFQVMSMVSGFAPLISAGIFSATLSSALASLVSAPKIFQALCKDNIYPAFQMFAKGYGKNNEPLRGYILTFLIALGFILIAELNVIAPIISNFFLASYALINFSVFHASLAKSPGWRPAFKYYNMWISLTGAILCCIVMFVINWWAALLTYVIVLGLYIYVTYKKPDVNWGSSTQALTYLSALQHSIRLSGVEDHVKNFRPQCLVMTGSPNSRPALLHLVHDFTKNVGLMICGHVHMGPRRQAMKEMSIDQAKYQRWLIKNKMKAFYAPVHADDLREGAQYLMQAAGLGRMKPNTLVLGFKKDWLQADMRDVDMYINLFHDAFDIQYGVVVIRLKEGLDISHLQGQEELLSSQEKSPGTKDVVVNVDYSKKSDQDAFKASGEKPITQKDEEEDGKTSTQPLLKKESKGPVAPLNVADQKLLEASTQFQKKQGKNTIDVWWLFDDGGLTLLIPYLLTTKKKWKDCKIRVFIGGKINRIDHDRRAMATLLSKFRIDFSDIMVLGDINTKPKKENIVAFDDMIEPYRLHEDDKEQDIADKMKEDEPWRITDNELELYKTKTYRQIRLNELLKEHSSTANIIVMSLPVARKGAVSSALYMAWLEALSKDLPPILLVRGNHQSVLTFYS
In words: Inhibition of Na+/K+/2Cl- cotransport, erythrocyte membrane in normotensive rats. In kind it is in vivo. From the text:
(§1) The 50% inhibitory concentration for Na^+ /K^+ /2Cl^- cotransport in vivo is decreased, in the case of the compound of Example 3, by about 60% relative to Torasemide (luminal membrane of the ascending branch of the loop of Henle in the nephron of perfused rabbits (Arzneim. Forsch. (1988) 38 (1a), 151-152)), and by 85% relative to Torasemide in the case of the compound of Example 10 (erythrocyte membrane in normotensive rats).
This decrease of the 50% inhibitory concentration of the Torasemide for Na^+ /K^+ /[…] co-transport (erythrocyte membrane in normotensive rats) reachs even 90% in the case of the compound of Example 18.

Data set [5] addresses T2, Na^+ /K^+ /2Cl^- cotransport (Oryctolagus cuniculus, UniProt P55015).
T2 construct: luminal membrane of the ascending branch of the loop of Henle in the nephron of perfused rabbits; from tissue; host or cells: rabbit nephron, ascending branch of the loop of Henle
T2 sequence (P55015 1-1099): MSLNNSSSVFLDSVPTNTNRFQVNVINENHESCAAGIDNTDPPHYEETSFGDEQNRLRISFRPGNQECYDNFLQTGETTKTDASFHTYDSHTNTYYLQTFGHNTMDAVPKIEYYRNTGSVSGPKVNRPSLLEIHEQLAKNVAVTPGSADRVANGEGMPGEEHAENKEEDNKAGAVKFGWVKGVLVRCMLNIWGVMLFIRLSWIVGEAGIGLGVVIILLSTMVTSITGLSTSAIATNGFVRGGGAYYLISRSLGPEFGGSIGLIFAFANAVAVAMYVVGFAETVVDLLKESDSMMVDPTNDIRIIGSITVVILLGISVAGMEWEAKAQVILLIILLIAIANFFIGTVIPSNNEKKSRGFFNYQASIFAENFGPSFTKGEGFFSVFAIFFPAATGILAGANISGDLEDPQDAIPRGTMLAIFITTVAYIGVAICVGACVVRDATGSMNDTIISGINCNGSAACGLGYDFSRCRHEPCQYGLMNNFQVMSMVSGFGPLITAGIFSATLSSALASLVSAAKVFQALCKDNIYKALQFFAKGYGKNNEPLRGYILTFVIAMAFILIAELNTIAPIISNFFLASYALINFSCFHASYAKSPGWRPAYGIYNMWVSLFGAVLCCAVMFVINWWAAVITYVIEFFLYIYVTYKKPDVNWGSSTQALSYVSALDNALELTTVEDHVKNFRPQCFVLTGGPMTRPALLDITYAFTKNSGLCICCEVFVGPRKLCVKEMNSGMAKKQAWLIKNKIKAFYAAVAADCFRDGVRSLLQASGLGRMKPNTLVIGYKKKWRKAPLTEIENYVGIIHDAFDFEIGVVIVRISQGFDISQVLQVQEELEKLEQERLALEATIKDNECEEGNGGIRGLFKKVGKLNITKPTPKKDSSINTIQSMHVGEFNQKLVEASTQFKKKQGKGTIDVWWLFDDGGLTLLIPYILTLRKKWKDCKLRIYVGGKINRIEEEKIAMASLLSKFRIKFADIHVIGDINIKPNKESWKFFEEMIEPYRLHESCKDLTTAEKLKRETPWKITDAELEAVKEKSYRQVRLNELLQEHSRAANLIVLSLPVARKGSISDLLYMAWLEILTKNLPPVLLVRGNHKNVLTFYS
In words: Inhibition of Na+/K+/2Cl- cotransport, luminal membrane of the ascending branch of the loop of Henle in the nephron of perfused rabbits. The following applies: in vivo.
From the text: as §1

By logD is commonly meant the decadic logarithm of the distribution of all forms, ionised or not, between an organic phase and buffer at a given pH. Broadly, the pKa is the pH at which an ionisable group is half protonated. Lower therefore signals a stronger acid or weaker base. The compound `O=C(NC1CCCCCC1)NS(=O)(=O)c1cnccc1NC1CCCCCCC1` [Example 8, N-((4-(cyclooctylamino)pyrid-3-yl)sulfonyl)-N'-cycloheptylurea] registered a logD in data set [1] of 2.45. The compound also came in with a pKa in data set [2] of 9.15. In addition, in data set [3], the “decrease of the 50% inhibitory concentration for Cl- passage in the kidneys relative to Torasemide” value is recorded as “about 50%”.
Take `Cc1cccc(Nc2ccncc2S(=O)(=O)NC(=O)NC(C)C)c1` [Torasemide, reference compound]: the logD in data set [1] came to 0.449. The compound also returned a pKa in data set [2] of 6.82.
Consider `O=C(NC1CCCCCC1)NS(=O)(=O)c1cnccc1NC1CCCCCC1` [Example 18, N-((4-(cycloheptylamino)pyrid-3-yl)sulfonyl)-N'-cycloheptylurea], for which the “decrease of the 50% inhibitory concentration for Na+/K+/2Cl- cotransport relative to Torasemide” value in data set [4] was 90%. Moreover, the “decrease of the 50% inhibitory concentration for Cl- passage in the kidneys relative to Torasemide” value in data set [3] is on record as 75%.
Turning to `O=C(NC1CCCCCCC1)NS(=O)(=O)c1cnccc1NC1CCCCC1` [Example 7, N-((4-(cyclohexylamino)pyrid-3-yl)sulfonyl)-N'-cyclooctylurea], the logD in data set [1] was determined as 2.07. Also, in data set [2], the pKa came out at 9.13.
`O=C(NC1CCCCC1)NS(=O)(=O)c1cnccc1NC1CCCCC1` [Example 1, N-((4(-cyclohexylamino)pyrid-3-yl)sulfonyl)-N'-cyclohexylurea] showed a logD in data set [1] of 1.33. The pKa in data set [2] came out at 9.02.
With `O=C(NC1CCCCCCC1)NS(=O)(=O)c1cnccc1NC1CCCCCCC1` [Example 3, N-((4-(cyclooctylamino)pyrid-3-yl)sulfonyl-N'-cyclooctylurea nitrate], the “decrease of the 50% inhibitory concentration for Na+/K+/2Cl- cotransport relative to Torasemide” value in data set [5] is “about 60%”. Also, the logD in data set [1] came to 2.7. In addition, in data set [2], the pKa stood at 7.74.
As to `O=C(NC1CCCCC1)NS(=O)(=O)c1cnccc1NC1CCCCCC1` [Example 2, N-((4-(cycloheptylamino)pyrid-3-yl)sulfonyl)-N'-cyclohexylurea], the logD in data set [1] came to 1.67. The compound also came in with a pKa in data set [2] of 9.39.
`O=C(NC1CCCCC1)NS(=O)(=O)c1cnccc1NC1CCCCCCC1` [Example 10, N-((4-(cyclooctylamino)pyrid-3-yl)sulfonyl)-N'-cyclohexylurea]: in data set [1], the logD stood at 2.06. Moreover, the “decrease of the 50% inhibitory concentration for Na+/K+/2Cl- cotransport relative to Torasemide” value in data set [4] is 85%. Besides, the pKa in data set [2] was found to be 8.95.
